Source: ChEMBL document CHEMBL1201862, “PubChem BioAssay data set” (2004)
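Cells were grown in 96-well plates and exposed to each compound for 48 hours at five concentrations; endpoints were interpolated linearly between bracketing concentrations, or set to the highest concentration if not reached. GI50 is the concentration that inhibits growth by half.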 Activity calls are given as the source filed them. Cut-off read from the data, not from the text of the source: active = GI50 up to about 1.1 µM and inactive = higher.

Legend:
Assay in all cases: inhibition of tumour cell growth, NCI panel, 48 h
HOP-92 = system: HOP-92
M19-MEL = system: M19-MEL
MOLT-4 = system: MOLT-4
UACC-257 = system: UACC-257
KM12 = system: KM12
M14 = system: M14
HL-60 = system: HL-60
TK-10 = system: TK-10
OVCAR-5 = system: OVCAR-5
IGROV-1 = system: IGROV-1
SK-MEL-2 = system: SK-MEL-2
SR = system: SR
U-251 = system: U-251
OVCAR-3 = system: OVCAR-3
DMS-114 = system: DMS-114
SNB-75 = system: SNB-75
NCI-H522 = system: NCI-H522
XF498 = system: XF498
LOX IMVI = system: LOX IMVI
SN12C = system: SN12C
SK-OV-3 = system: SK-OV-3
786-0 = system: 786-0
A549 = system: A549
SK-MEL-28 = system: SK-MEL-28
HCC 2998 = system: HCC 2998
UO-31 = system: UO-31
SF-539 = system: SF-539
NCI-H460 = system: NCI-H460
HOP-18 = system: HOP-18
RPMI-8226 = system: RPMI-8226
HT-29 = system: HT-29
SF-268 = system: SF-268
HOP-62 = system: HOP-62
SK-MEL-5 = system: SK-MEL-5
NCI-H23 = system: NCI-H23
OVCAR-4 = system: OVCAR-4
ACHN = system: ACHN
UACC-62 = system: UACC-62
HCT-116 = system: HCT-116
EKVX = system: EKVX
COLO 205 = system: COLO 205
SNB-19 = system: SNB-19
SNB-78 = system: SNB-78
KM-20L2 = system: KM-20L2
CCRF-CEM = system: CCRF-CEM
A498 = system: A498
OVCAR-8 = system: OVCAR-8
NCI-H226 = system: NCI-H226
SF-295 = system: SF-295
Malme-3M = system: Malme-3M
RXF 393 = system: RXF 393
HCT-15 = system: HCT-15
LXFL 529 = system: LXFL 529
DLD-1 = system: DLD-1
CAKI-1 = system: CAKI-1
K562 = system: K562
DMS-273 = system: DMS-273

Structure (SMILES): CS/C(c1ccccc1)=[N+](\[O-])Cc1ccccc1
- GI50 (HOP-92): > 100 µM (inactive)
- GI50 (M19-MEL): > 100 µM (inactive)
- GI50 (MOLT-4): > 100 µM (inactive)
- GI50 (UACC-257): > 100 µM (inactive)
- GI50 (KM12): > 100 µM (inactive)
- GI50 (M14): > 100 µM (inactive)
- GI50 (HL-60): > 100 µM (inactive)
- GI50 (TK-10): > 100 µM (inactive)
- GI50 (OVCAR-5): > 100 µM (inactive)
- GI50 (IGROV-1): > 100 µM (inactive)
- GI50 (SK-MEL-2): > 100 µM (inactive)
- GI50 (SR): 20 µM (inactive)
- GI50 (U-251): > 100 µM (inactive)
- GI50 (OVCAR-3): > 100 µM (inactive)
- GI50 (DMS-114): 45.9 µM (inactive)
- GI50 (SNB-75): > 100 µM (inactive)
- GI50 (NCI-H522): 90.2 µM (inactive)
- GI50 (XF498): > 100 µM (inactive)
- GI50 (LOX IMVI): 16.4 µM (inactive)
- GI50 (SN12C): > 100 µM (inactive)
- GI50 (SK-OV-3): > 100 µM (inactive)
- GI50 (786-0): > 100 µM (inactive)
- GI50 (A549): > 100 µM (inactive)
- GI50 (SK-MEL-28): > 100 µM (inactive)
- GI50 (HCC 2998): > 100 µM (inactive)
- GI50 (UO-31): > 100 µM (inactive)
- GI50 (SF-539): > 100 µM (inactive)
- GI50 (NCI-H460): 33.6 µM (inactive)
- GI50 (HOP-18): > 100 µM (inactive)
- GI50 (RPMI-8226): 27.1 µM (inactive)
- GI50 (HT-29): 50.7 µM (inactive)
- GI50 (SF-268): > 100 µM (inactive)
- GI50 (HOP-62): > 100 µM (inactive)
- GI50 (SK-MEL-5): > 100 µM (inactive)
- GI50 (NCI-H23): > 100 µM (inactive)
- GI50 (OVCAR-4): > 100 µM (inactive)
- GI50 (ACHN): > 100 µM (inactive)
- GI50 (UACC-62): > 100 µM (inactive)
- GI50 (HCT-116): > 100 µM (inactive)
- GI50 (EKVX): > 100 µM (inactive)
- GI50 (COLO 205): > 100 µM (inactive)
- GI50 (SNB-19): > 100 µM (inactive)
- GI50 (SNB-78): > 100 µM (inactive)
- GI50 (KM-20L2): > 100 µM (inactive)
- GI50 (CCRF-CEM): 39.4 µM (inactive)
- GI50 (A498): > 100 µM (inactive)
- GI50 (OVCAR-8): > 100 µM (inactive)
- GI50 (NCI-H226): > 100 µM (inactive)
- GI50 (SF-295): > 100 µM (inactive)
- GI50 (Malme-3M): > 100 µM (inactive)
- GI50 (RXF 393): > 100 µM (inactive)
- GI50 (HCT-15): 16.7 µM
- GI50 (LXFL 529): > 100 µM (inactive)
- GI50 (DLD-1): > 100 µM (inactive)
- GI50 (CAKI-1): > 100 µM (inactive)
- GI50 (K562): > 100 µM (inactive)

Structure (SMILES): [O-][S+](Cc1ccccn1)c1nc2ccccc2nc1-c1ccccc1 (stereo not drawn)
- GI50 (HOP-92): 28.3 µM (inactive)
- GI50 (MOLT-4): 38.3 µM (inactive)
- GI50 (UACC-257): 33.1 µM (inactive)
- GI50 (M14): 36 µM (inactive)
- GI50 (HL-60): 20.8 µM (inactive)
- GI50 (IGROV-1): 36 µM (inactive)
- GI50 (U-251): 41.5 µM (inactive)
- GI50 (DMS-273): 26.1 µM (inactive)
- GI50 (OVCAR-3): 44.9 µM (inactive)
- GI50 (DMS-114): 28.2 µM (inactive)
- GI50 (SNB-75): 26.3 µM (inactive)
- GI50 (XF498): 17.5 µM (inactive)
- GI50 (SN12C): 35.3 µM (inactive)
- GI50 (SK-OV-3): 55.7 µM (inactive)
- GI50 (786-0): 47.2 µM (inactive)
- GI50 (A549): 47.2 µM (inactive)
- GI50 (SK-MEL-28): 53.8 µM (inactive)
- GI50 (UO-31): 37.7 µM (inactive)
- GI50 (HOP-18): 80.4 µM (inactive)
- GI50 (RPMI-8226): 19.9 µM (inactive)
- GI50 (HT-29): 44.4 µM (inactive)
- GI50 (SF-268): 66.1 µM (inactive)
- GI50 (NCI-H23): 34.8 µM (inactive)
- GI50 (OVCAR-4): 26.9 µM (inactive)
- GI50 (ACHN): 48.1 µM (inactive)
- GI50 (HCT-116): 33.4 µM (inactive)
- GI50 (EKVX): 30.7 µM (inactive)
- GI50 (COLO 205): 18.8 µM (inactive)
- GI50 (SNB-19): 62.4 µM (inactive)
- GI50 (SNB-78): 21.2 µM (inactive)
- GI50 (CCRF-CEM): 38.6 µM (inactive)
- GI50 (OVCAR-8): 26.5 µM (inactive)
- GI50 (NCI-H226): 18.9 µM (inactive)
- GI50 (SF-295): 27.9 µM (inactive)
- GI50 (Malme-3M): 33.1 µM (inactive)
- GI50 (LXFL 529): 31.9 µM (inactive)
- GI50 (K562): 31.3 µM (inactive)
